{"source": "paper PMC6768323", "about": "“Adverse Maternal, Fetal, and Postnatal Effects of Hexafluoropropylene Oxide Dimer Acid (GenX) from Oral Gestational Exposure in Sprague-Dawley Rats” (Environmental Health Perspectives, 2019)", "test": "HFPO-DA concentrations in maternal serum and fetal plasma", "assay_type": "in vivo, Sprague-Dawley rats", "description": "Maternal sera from all three blocks and fetal plasma from the third block were analyzed for HFPO-DA concentrations similar to previously reported methods ([McCord et al. 2018]; [Reiner et al. 2009]; [Rushing et al. 2017]). Serum or plasma samples ( 25μL ) were denatured using 0.1M formic acid (FA) followed by a cold ( −20°C ) acetonitrile (ACN) protein crash. The volumes of FA and ACN varied based on the anticipated concentrations of HFPO-DA in the sample ( 0–100 ng HFPO-DA/mL=100μL FA +0.5mL ACN; 100–5,000 ng HFPO-DA/mL=100μL FA +1.0mL ACN; 5,000–200,000 ng HFPO-DA/mL=1.0mL FA added, then 100-μL subsamples removed and crashed with 900μL cold ACN). Samples were vortex mixed after FA and ACN additions then centrifuged at 10,000×g for 5 min and the supernatant removed. Sample extracts were separated using a Waters ACQUITY ultra performance liquid chromatograph (UPLC) (Waters Corporation) fitted with a Waters ACQUITY UPLC BEH C18 column ( 2.1mm×50mm; 1.7μm; 130 Å ). Detection was performed using a Waters Quattro Premier XE tandem quadrupole mass spectrometer in negative ionization mode. A stable isotope of HFPO-DA ( C313 , Wellington Laboratories) was used as an internal standard for quantitation. Separate calibration curves were prepared for the ranges 0–100 ng/mL , 100–5,000 ng/mL , and 5,000–200,000 ng/mL to account for expected concentration differences between control, offspring (fetus/pup), and dam concentrations across the dose range tested.\nSerum HFPO-DA concentrations in the mother and the fetus were analyzed as a function of oral dose administered to the mother. We utilized nonlinear regression (exponential one-phase association) to describe the increase and saturation of serum HFPO-DA concentrations across the full oral dose range ( 1–500mg/kg ) for maternal serum. Fetal plasma HFPO-DA concentrations were only analyzed in the low-dose range ( 1–30mg/kg ), which was better described using a linear uptake model. We compared the slopes of the low-dose linear regressions for maternal serum and fetal plasma HFPO-DA concentrations using GraphPad Prism.", "note": "Where “and” joins values, the source holds several entries; their conditions need not be identical. Equal values may be shown once."}
{"smiles": "O=C(O)C(F)(OC(F)(F)C(F)(F)C(F)(F)F)C(F)(F)F", "note": "(centres unmarked) [HFPO-DA, Hexafluoropropylene oxide dimer acid]", "values": [{"measurement": "fetal plasma HFPO-DA slope per 1-mg/kg increase in oral maternal dose", "setting": "1-30 mg/kg, linear regression", "result": "0.12 µg/mL and 0.12 ± 0.0094 µg/mL"}, {"measurement": "fetal plasma y-intercept", "setting": "1-30 mg/kg, linear regression", "result": "0.17±0.13"}, {"measurement": "maternal serum HFPO-DA slope per 1-mg/kg increase in oral maternal dose", "setting": "1-30 mg/kg, linear regression", "result": "0.46 µg/mL and 0.46 ± 0.06 µg/mL"}, {"measurement": "maternal serum y-intercept", "setting": "1-30 mg/kg, linear regression", "result": "0.032±0.80"}, {"measurement": "plateau of maternal serum HFPO-DA, exponential one-phase association", "setting": "1-500 mg/kg", "result": "112 ± 15", "unit": "µg/mL"}]}
